These results are taken from patent US20240360075A1, “N-SUBSTITUTED C6 CYCLYL CARBOXAMIDE COMPOUNDS AND USES THEREOF” (ALCON INC., priority 2023, published 2024).

In the test the target is T1, TRPM8 (Homo sapiens, UniProt Q7Z2W7).
T1 construct: purchased Eurofins (Cerep) item #3316
In words: TRPM8 Human Transient Potential Ion Channel Cell Based Agonist Calcium Flux Assay (Eurofins Cerep item #3316). The settings on record: for Percent Agonist / Emax: control activator ligand icilin; for EC50: room temperature; for Emax: read-out: Percent Agonist. The text has this:
Compounds can be tested using the commercially available kit from Eurofins “TRPM8 Human Transient Potential Ion Channel Cell Based Agonist Calcium Flux Assay, Cerep” item #3316, or using the assay, referenced by Eurofins, and described in Behrendt et al. “Characterization of the mouse cold-menthol receptor TRPM8 and vanilloid receptor type-1 VR1 using a fluorometric imaging plate reader (FLIPR) assay,” Br J Pharmacol. 2004 Feb;141(4):737-45, which are each incorporated herein by reference. […] 4.
The assay is done at room temperature and measures calcium flux.
Background: Calcium flux is commonly read through the fluorescence of an indicator in the cells.

T1 sequence (Q7Z2W7 whole entry): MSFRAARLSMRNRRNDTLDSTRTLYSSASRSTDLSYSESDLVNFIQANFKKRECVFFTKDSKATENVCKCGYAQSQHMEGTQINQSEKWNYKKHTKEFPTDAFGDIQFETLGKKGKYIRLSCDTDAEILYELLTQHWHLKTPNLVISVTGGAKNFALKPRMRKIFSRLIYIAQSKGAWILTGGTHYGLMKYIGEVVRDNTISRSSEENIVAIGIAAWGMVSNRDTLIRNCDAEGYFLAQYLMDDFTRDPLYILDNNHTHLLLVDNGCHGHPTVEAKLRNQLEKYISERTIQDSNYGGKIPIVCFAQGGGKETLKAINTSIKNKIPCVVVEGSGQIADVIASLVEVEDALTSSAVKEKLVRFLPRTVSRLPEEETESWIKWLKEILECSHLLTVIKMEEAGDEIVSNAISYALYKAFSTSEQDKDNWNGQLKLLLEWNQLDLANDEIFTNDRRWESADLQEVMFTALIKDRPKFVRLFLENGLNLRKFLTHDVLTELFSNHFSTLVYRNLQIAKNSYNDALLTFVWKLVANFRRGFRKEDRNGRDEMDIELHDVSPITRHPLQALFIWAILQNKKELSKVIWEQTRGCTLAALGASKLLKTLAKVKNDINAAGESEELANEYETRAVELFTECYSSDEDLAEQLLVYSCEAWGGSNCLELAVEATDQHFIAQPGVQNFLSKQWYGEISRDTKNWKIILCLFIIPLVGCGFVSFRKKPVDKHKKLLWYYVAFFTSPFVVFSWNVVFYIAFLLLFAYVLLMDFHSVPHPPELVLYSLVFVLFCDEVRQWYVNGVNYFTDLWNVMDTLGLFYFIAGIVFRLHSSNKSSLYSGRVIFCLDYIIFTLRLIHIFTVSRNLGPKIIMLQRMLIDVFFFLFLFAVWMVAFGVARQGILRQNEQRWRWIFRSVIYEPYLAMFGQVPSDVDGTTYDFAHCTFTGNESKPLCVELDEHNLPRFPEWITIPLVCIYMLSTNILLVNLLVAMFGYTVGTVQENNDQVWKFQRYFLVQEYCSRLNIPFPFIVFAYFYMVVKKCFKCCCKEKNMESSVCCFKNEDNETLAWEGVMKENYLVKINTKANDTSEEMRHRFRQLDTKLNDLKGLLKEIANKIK

Broadly, the EC50 is the concentration at which the effect is half-maximal. Take `CC(C)[C@@H]1CC[C@@H](C)C[C@H]1C(=O)NC1CC2C(C1)C2(F)F` (stereo partly shown) [92 or 102]: the “Percent Agonist” value is reported as greater than 50% and the 50% effective concentration (EC50) was less than 100 nM.
As for `CC(C)[C@@H]1CC[C@@H](C)C[C@H]1C(=O)NC1CC2C(C1)C2(F)F` (stereo partly shown) [102 or 92], the “Percent Agonist” value is reported as greater than 75% and the EC50 was less than 500 nM.
Taken in the same sequence, the figures for `COc1ccc(NC(=O)[C@@H]2C[C@H](C)CC[C@H]2C(C)C)cc1` [Compound 1] were 100% and 24 nM.
Consider `CC(C)[C@@H]1CC[C@@H](C)C[C@H]1C(=O)Nc1ccc(N2CCN(C)CC2)cc1` [Compound 2], for which the Emax is greater than 100% and the EC50 is less than 500 nM.
The corresponding values for `COCCOc1ccc(NC(=O)[C@@H]2C[C@H](C)CC[C@H]2C(C)C)cc1` [Compound 3] are greater than 75% and less than 500 nM.
The corresponding values for `CC(C)[C@@H]1CC[C@@H](C)C[C@H]1C(=O)Nc1ccc2c(c1)B(O)OC2` [Compound 4] are greater than 50% and less than 100 nM.
`COCCOCCOc1ccc(NC(=O)[C@@H]2C[C@H](C)CC[C@H]2C(C)C)cc1` [Compound 5]: the Emax is greater than 75% and the concentration for a half-maximal effect (EC50) was less than 500 nM.
Turning to `CC(C)[C@@H]1CC[C@@H](C)C[C@H]1C(=O)Nc1ccc(C2CC2)cc1` [Compound 6], the Emax was greater than 75% and the EC50 is less than 100 nM.
Taken in the same sequence, the figures for `COCCOCCOc1cccc(NC(=O)[C@@H]2C[C@H](C)CC[C@H]2C(C)C)c1` [Compound 9] were greater than 75% and less than 5000 nM.
As to `COc1ccc(CNC(=O)[C@@H]2C[C@H](C)CC[C@H]2C(C)C)cc1` [Compound 10], the Emax was greater than 75% and the EC50 was less than 5000 nM.
The corresponding values for `CC(C)[C@@H]1CC[C@@H](C)C[C@H]1C(=O)Nc1ccc(OCCN(C)C)cc1` [Compound 11] are greater than 75% and less than 500 nM.
In the case of `CC(C)[C@@H]1CC[C@@H](C)C[C@H]1C(=O)Nc1ccc(CO)cc1` [Compound 15], the Emax is greater than 75% and the concentration giving a half-maximal response (EC50) is less than 100 nM.
The corresponding values for `CC(C)[C@@H]1CC[C@@H](C)C[C@H]1C(=O)Nc1ccc(CCO)cc1` [Compound 17] are greater than 75% and less than 100 nM.
As for `CC(C)[C@@H]1CC[C@@H](C)C[C@H]1C(=O)Nc1ccc(N2CCOCC2)cc1` [Compound 18], the Emax is greater than 50% and the concentration for a half-maximal effect (EC50) is less than 100 nM.
The corresponding values for `CC(C)[C@@H]1CC[C@@H](C)C[C@H]1C(=O)Nc1ccc(OCCN2CCCC2)cc1` [Compound 19] are greater than 75% and less than 500 nM.
Take `CC(C)[C@@H]1CC[C@@H](C)C[C@H]1C(=O)Nc1ccc(C2(CCO)COC2)cc1` [Compound 20]: the Emax is greater than 100% and the concentration giving a half-maximal response (EC50) was less than 500 nM.
Turning to `CC(C)[C@@H]1CC[C@@H](C)C[C@H]1C(=O)Nc1ccc(C2(O)COC2)cc1` [Compound 21], the Emax was greater than 75% and the 50% effective concentration (EC50) was less than 100 nM.
Consider `CC(C)[C@@H]1CC[C@@H](C)C[C@H]1C(=O)Nc1ccc(B2OC(C)(C)C(C)(C)O2)cc1` [Compound 22], for which the Emax is greater than 100% and the half-maximal effective concentration (EC50) was less than 500 nM.
Regarding `CC(C)[C@@H]1CC[C@@H](C)C[C@H]1C(=O)Nc1cccc(C2(O)COC2)c1` [Compound 23], the Emax was greater than 75% and the EC50 was less than 500 nM.
On to `CCOC(=O)CC1(c2ccc(NC(=O)[C@@H]3C[C@H](C)CC[C@H]3C(C)C)cc2)COC1` [Compound 24], for which the Emax was greater than 100% and the EC50 was less than 500 nM.
Taken in the same sequence, the figures for `COC12CC(NC(=O)[C@@H]3C[C@H](C)CC[C@H]3C(C)C)(C1)C2` [Compound 25] were greater than 75% and less than 100 nM.
`COCCN1CC(NC(=O)[C@@H]2C[C@H](C)CC[C@H]2C(C)C)C1` [Compound 26]: the Emax was greater than 75% and the EC50 was less than 1000 nM.
On to `CC(C)[C@@H]1CC[C@@H](C)C[C@H]1C(=O)NC12CC(C#N)(C1)C2` [Compound 27], for which the Emax is greater than 75% and the EC50 is less than 5000 nM.
Taken in the same sequence, the figures for `CC(C)[C@@H]1CC[C@@H](C)C[C@H]1C(=O)NC1CN(CCO)C1` [Compound 28] were greater than 75% and less than 10000 nM.
The corresponding values for `CC(C)[C@@H]1CC[C@@H](C)C[C@H]1C(=O)NC12CC(F)(C1)C2` [Compound 29] are greater than 100% and less than 1000 nM.
For `CC(C)[C@@H]1CC[C@@H](C)C[C@H]1C(=O)NC1CN(CC(=O)OC(C)(C)C)C1` [Compound 30], the EC50 was greater than 10000 nM.
With `COC(=O)C12CC(NC(=O)[C@@H]3C[C@H](C)CC[C@H]3C(C)C)(C1)C2` [Compound 31], the Emax was greater than 75% and the EC50 was less than 100 nM.
The corresponding values for `CC(C)[C@@H]1CC[C@@H](C)C[C@H]1C(=O)NC1CC2(COC2)C1` [Compound 32] are greater than 75% and less than 2000 nM.
The corresponding values for `CC(C)[C@@H]1CC[C@@H](C)C[C@H]1C(=O)NC12CC(CO)(C1)C2` [Compound 33] are greater than 100% and less than 1000 nM.
On to `CC(C)[C@@H]1CC[C@@H](C)C[C@H]1C(=O)N[C@H]1CC[C@H](N)C1` [Compound 34], for which the Emax was greater than 75% and the EC50 is less than 1000 nM.
Taken in the same sequence, the figures for `COCC12CC(NC(=O)[C@@H]3C[C@H](C)CC[C@H]3C(C)C)(C1)C2` [Compound 35] were greater than 75% and less than 100 nM.
The corresponding values for `CC(C)[C@@H]1CC[C@@H](C)C[C@H]1C(=O)NC1CCS(=O)(=O)CC1` [Compound 36] are greater than 75% and less than 10000 nM.
As to `COC(=O)NC12CC(NC(=O)[C@@H]3C[C@H](C)CC[C@H]3C(C)C)(C1)C2` [Compound 37], the Emax is greater than 100% and the EC50 is less than 1000 nM.
With `CC(C)[C@@H]1CC[C@@H](C)C[C@H]1C(=O)NC1COC1` [Compound 38], the Emax is greater than 75% and the EC50 is less than 500 nM.
Taken in the same sequence, the figures for `COC(=O)CC12CC(NC(=O)[C@@H]3C[C@H](C)CC[C@H]3C(C)C)(C1)C2` [Compound 43] were greater than 75% and less than 1000 nM.
The corresponding values for `CC(C)[C@@H]1CC[C@@H](C)C[C@H]1C(=O)NC1CC2(CCCO2)C1` (stereo partly shown) [Compound 44] are greater than 75% and less than 1000 nM.
The corresponding values for `CC(C)[C@@H]1CC[C@@H](C)C[C@H]1C(=O)NC12CC(CCO)(C1)C2` [Compound 45] are greater than 100% and less than 1000 nM.
`CC(C)[C@@H]1CC[C@@H](C)C[C@H]1C(=O)NC12CCC(CO)(CC1)C2` [Compound 46]: the Emax is greater than 100% and the half-maximal effective concentration (EC50) was less than 500 nM.
Taken in the same sequence, the figures for `CC(C)[C@@H]1CC[C@@H](C)C[C@H]1C(=O)NC12CC(NC(=O)CO)(C1)C2` [Compound 47] were greater than 100% and less than 500 nM.
With `COC1CC(NC(=O)[C@@H]2C[C@H](C)CC[C@H]2C(C)C)C1` (stereo partly shown) [Compound 48], the Emax is greater than 50% and the concentration for a half-maximal effect (EC50) is less than 500 nM.
On to `CON(C)C(=O)C12CC(NC(=O)[C@@H]3C[C@H](C)CC[C@H]3C(C)C)(C1)C2` [Compound 49], for which the Emax is greater than 75% and the EC50 is less than 500 nM.
Taken in the same sequence, the figures for `CO[C@H]1CC[C@H](NC(=O)[C@@H]2C[C@H](C)CC[C@H]2C(C)C)CC1` [Compound 50] were greater than 100% and less than 500 nM.
For the compound `CC(C)[C@@H]1CC[C@@H](C)C[C@H]1C(=O)NC12CC(C(=O)OC(C)(C)C)(C1)C2` [Compound 51], the Emax is greater than 75% and the EC50 was less than 100 nM.
For `COCCO[C@H]1CC[C@H](NC(=O)[C@@H]2C[C@H](C)CC[C@H]2C(C)C)CC1` [Compound 52], the Emax is greater than 100% and the EC50 was less than 1000 nM.
As for `CC(C)[C@@H]1CC[C@@H](C)C[C@H]1C(=O)NC12CC(C(=O)O)(C1)C2` [Compound 53], the EC50 was greater than 10000 nM.
`CC(C)[C@@H]1CC[C@@H](C)C[C@H]1C(=O)NC1CCN(C)CC1` [Compound 54]: the Emax is greater than 75% and the EC50 was greater than 10000 nM.
For the compound `COC12CCC(NC(=O)[C@@H]3C[C@H](C)CC[C@H]3C(C)C)(CC1)CC2` [Compound 55], the Emax was greater than 75% and the concentration giving a half-maximal response (EC50) is less than 100 nM.
As to `CC(C)[C@@H]1CC[C@@H](C)C[C@H]1C(=O)NCC1COC1` [Compound 56], the Emax is greater than 75% and the concentration giving a half-maximal response (EC50) is less than 10000 nM.
With `COC(=O)C12CCC(NC(=O)[C@@H]3C[C@H](C)CC[C@H]3C(C)C)(CC1)CC2` [Compound 57], the Emax was greater than 75% and the 50% effective concentration (EC50) was less than 1000 nM.
As to `CC(C)[C@@H]1CC[C@@H](C)C[C@H]1C(=O)NC12CCC(C(F)(F)F)(CC1)C2` [Compound 59], the Emax was greater than 75% and the EC50 was less than 1000 nM.
The corresponding values for `CNC(=O)c1cc(OC)ccc1NC(=O)[C@@H]1C[C@H](C)CC[C@H]1C(C)C` [Compound 61] are greater than 75% and less than 100 nM.
The corresponding values for `COC(=O)c1cc(NC(=O)[C@@H]2C[C@H](C)CC[C@H]2C(C)C)sn1` [Compound 62] are greater than 75% and less than 500 nM.
With `CC(C)[C@@H]1CC[C@@H](C)C[C@H]1C(=O)Nc1cc(C(=O)O)ns1` [Compound 64], the EC50 was greater than 10000 nM.
For the compound `CC(C)[C@@H]1CC[C@@H](C)C[C@H]1C(=O)Nc1ccccc1CN(C)C` [Compound 65], the Emax was greater than 50% and the EC50 was less than 1000 nM.
Taken in the same sequence, the figures for `CC(C)[C@@H]1CC[C@@H](C)C[C@H]1C(=O)Nc1ccccc1CCN` [Compound 67] were greater than 75% and less than 100 nM.
Taken in the same sequence, the figures for `COC(=O)Cn1cc(NC(=O)[C@@H]2C[C@H](C)CC[C@H]2C(C)C)cn1` [Compound 68] were greater than 75% and less than 7500 nM.
